Reference: ChEMBL document CHEMBL1154797, “Synthesis, anti-bacterial and anti-fungal activities of some novel Schiff bases containing 2,4-disubstituted thiazole ring” (2010)
Converted amounts (≈) assume the structure as drawn.

Tests used:
[1] = test system: Staphylococcus aureus; test: Antibacterial activity against Staphylococcus aureus at MIC after 24 hrs by disk diffusion assay; format: functional
[2] = test system: Staphylococcus aureus; test: Antibacterial activity against Staphylococcus aureus; format: functional
[3] = test system: Cryptococcus neoformans; format: functional
Description: Antifungal activity against Cryptococcus neoformans at MIC after 72 hrs by disk diffusion assay

[4] = test system: Cryptococcus neoformans; test: Antifungal activity against Cryptococcus neoformans; format: functional
[5] = test system: Klebsiella pneumoniae; test: Antibacterial activity against Klebsiella pneumoniae at MIC after 24 hrs by disk diffusion assay; format: functional
[6] = test system: Klebsiella pneumoniae; test: Antibacterial activity against Klebsiella pneumoniae; format: functional
[7] = test system: Candida albicans; test: Antifungal activity against Candida albicans; format: functional
[8] = test system: Candida tropicalis; format: functional
Description: Antifungal activity against Candida tropicalis at MIC after 72 hrs by disk diffusion assay

[9] = test system: Candida albicans; format: functional
Description: Antifungal activity against Candida albicans at MIC after 72 hrs by disk diffusion assay

[10] = test system: Candida tropicalis; test: Antifungal activity against Candida tropicalis; format: functional
[11] = test system: Aspergillus flavus; test: Antifungal activity against Aspergillus flavus; format: functional
[12] = test system: Aspergillus flavus; format: functional
Description: Antifungal activity against Aspergillus flavus at MIC after 72 hrs by disk diffusion assay

[13] = test system: Vibrio cholerae; test: Antibacterial activity against Vibrio cholerae; format: functional
[14] = test system: Vibrio cholerae; test: Antibacterial activity against Vibrio cholerae at MIC after 24 hrs by disk diffusion assay; format: functional
[15] = test system: Pseudomonas aeruginosa; test: Antibacterial activity against Pseudomonas aeruginosa at MIC after 24 hrs by disk diffusion assay; format: functional
[16] = test system: Pseudomonas aeruginosa; test: Antibacterial activity against Pseudomonas aeruginosa; format: functional
[17] = test system: Salmonella enterica; test: Antibacterial activity against Salmonella typhi; format: functional, Salmonella enterica subsp. enterica serovar Typhi
[18] = test system: Salmonella enterica; test: Antibacterial activity against Salmonella typhi at MIC after 24 hrs by disk diffusion assay; format: functional, Salmonella enterica subsp. enterica serovar Typhi

SMILES | diameter of the inhibition zone (DIZ) [3] [mm] | MIC [4] [µg/mL] | MIC [7] [µg/mL] | diameter of the inhibition zone (DIZ) [9] [mm] | MIC [11] [µg/mL] | diameter of the inhibition zone (DIZ) [12] [mm] | also measured
COc1ccc(/C=N/Nc2nc(-c3ccc(OC)cc3)cs2)cc1 |  |  |  |  |  |  | diameter of the inhibition zone (DIZ) [1]: <10 mm; MIC [2]: 50 µg/mL (≈ 147 µM)
Brc1ccc(-c2csc(N/N=C/c3c[nH]c4ccccc34)n2)cc1 | 13 | 25 (≈ 62.9 µM) |  |  |  |  | 
Fc1ccccc1/C=N/Nc1nc(-c2ccc(Br)cc2)cs1 |  |  |  |  |  |  | diameter of the inhibition zone (DIZ) [5]: <10 mm; MIC [6]: 50 µg/mL (≈ 133 µM)
COc1ccc(-c2csc(N/N=C/c3ccccc3O)n2)cc1 | 12 | 25 (≈ 76.8 µM) | 25 (≈ 76.8 µM) | 11 |  |  | diameter of the inhibition zone (DIZ) [8]: 13 mm; MIC [10]: 25 µg/mL (≈ 76.8 µM)
COc1ccc(-c2csc(N/N=C/c3ccccc3)n2)cc1 | 14 | 12.5 (≈ 40.4 µM) | 12.5 (≈ 40.4 µM) | 13 | 12.5 (≈ 40.4 µM) | 13 | 
COc1ccc(-c2csc(N/N=C(\c3ccccc3)C(O)c3ccccc3)n2)cc1 (stereo not given) |  |  |  |  | 25 (≈ 60.2 µM) | 13 | MIC [13]: 25 µg/mL (≈ 60.2 µM); diameter of the inhibition zone (DIZ) [14]: 16 mm
COc1ccc(-c2csc(N/N=C/c3ccc(OC)c(OC)c3)n2)cc1 |  |  |  |  |  |  | diameter of the inhibition zone (DIZ) [1]: <10 mm; MIC [2]: 50 µg/mL (≈ 135 µM)
COc1ccc(-c2csc(N/N=C/c3ccc(O)cc3O)n2)cc1 |  |  |  |  |  |  | diameter of the inhibition zone (DIZ) [15]: <10 mm; MIC [16]: 50 µg/mL (≈ 146 µM)
Oc1ccccc1/C=N/Nc1nc(-c2ccc(Br)cc2)cs1 |  |  |  |  |  |  | diameter of the inhibition zone (DIZ) [5]: <10 mm; MIC [6]: 50 µg/mL (≈ 134 µM)
O=C(O)c1cn(C2CC2)c2cc(N3CCNCC3)c(F)cc2c1=O [CIPROFLOXACIN] |  |  |  |  |  |  | diameter of the inhibition zone (DIZ) [5]: 23 mm; MIC [17]: 6.25 µg/mL (≈ 18.9 µM); diameter of the inhibition zone (DIZ) [18]: 18 mm; diameter of the inhibition zone (DIZ) [1]: 25 mm; MIC [6]: 6.25 µg/mL (≈ 18.9 µM)
COc1ccc(-c2csc(N/N=C/c3cc(OC)c(OC)c(OC)c3)n2)cc1 |  |  |  |  |  |  | diameter of the inhibition zone (DIZ) [1]: <10 mm; MIC [2]: 50 µg/mL (≈ 125 µM)
OC(/C(=N/Nc1nc(-c2ccc(Br)cc2)cs1)c1ccccc1)c1ccccc1 (stereo not given) | 21 | 6.25 (≈ 13.5 µM) | 6.25 (≈ 13.5 µM) | 19 | 6.25 (≈ 13.5 µM) | 17 | diameter of the inhibition zone (DIZ) [8]: 16 mm; MIC [10]: 6.25 µg/mL (≈ 13.5 µM); diameter of the inhibition zone (DIZ) [1]: 17 mm; MIC [13]: 12.5 µg/mL (≈ 26.9 µM); diameter of the inhibition zone (DIZ) [14]: 17 mm; MIC [2]: 12.5 µg/mL (≈ 26.9 µM)
OC(Cn1cncn1)(Cn1cncn1)c1ccc(F)cc1F [FLUCONAZOLE] | 22 | 6.25 (≈ 20.4 µM) | 6.25 (≈ 20.4 µM) | 22 | 6.25 (≈ 20.4 µM) | 19 | diameter of the inhibition zone (DIZ) [8]: 20 mm; MIC [10]: 6.25 µg/mL (≈ 20.4 µM)
Brc1ccc(-c2csc(NN=C3CCCC3)n2)cc1 | 14 | 12.5 (≈ 37.2 µM) | 12.5 (≈ 37.2 µM) | 16 | 12.5 (≈ 37.2 µM) | 15 | MIC [13]: 6.25 µg/mL (≈ 18.6 µM); diameter of the inhibition zone (DIZ) [14]: 19 mm
COc1ccc(-c2csc(NN=C3CCCC3)n2)cc1 | 18 | 12.5 (≈ 43.5 µM) | 12.5 (≈ 43.5 µM) | 17 | 12.5 (≈ 43.5 µM) | 18 | 
Brc1ccc(-c2csc(N/N=C/c3ccccc3)n2)cc1 | 15 | 12.5 (≈ 34.9 µM) | 12.5 (≈ 34.9 µM) | 15 | 12.5 (≈ 34.9 µM) | 16 | diameter of the inhibition zone (DIZ) [8]: 14 mm; MIC [10]: 25 µg/mL (≈ 69.8 µM)
Brc1ccc(-c2csc(NN=C3CCCCC3)n2)cc1 | 16 | 12.5 (≈ 35.7 µM) | 12.5 (≈ 35.7 µM) | 17 | 12.5 (≈ 35.7 µM) | 16 | diameter of the inhibition zone (DIZ) [8]: 14 mm; MIC [10]: 12.5 µg/mL (≈ 35.7 µM)
